Data taken from ChEMBL document CHEMBL4602732, “Optimizing Pyrazolopyrimidine Inhibitors of Calcium Dependent Protein Kinase 1 for Treatment of Acute and Chronic Toxoplasmosis” (J Med Chem, 2020).

Columns and labels:
CHO-K1 = test: Genotoxicity in CHOK1 cells measured after 3 hrs in presence of Sprague-Dawley rat liver S9 fraction by Hoechst/calcein-AM staining based micronucleus test; assay type: toxicity, cell-based, Cricetulus griseus; details: chinese hamster, s9, 3 h
[1] = Half life in human liver microsomes at 10 uM preincubated for 10 mins followed by NADPH addition by LC-MS/MS analysis; assay type: ADME, Microsome; details: liver microsomes
[2] = Inhibition of Toxoplasma gondii full-length wild-type C-terminal His-tagged CDPK1 expressed in Escherichia coli BL21(DE3)V2RpAcYc-LIC+LamP using syntide-2 peptide as substrate incubated for 20 to 40 mins by ELISA
[3] = molecular target: Proto-oncogene tyrosine-protein kinase Src (Homo sapiens, UniProt P12931); test: Inhibition of human Src expressed in Escherichia coli BL21 using Abltide peptide as substrate incubated for 20 to 40 mins by ELISA
[4] = Cytotoxicity against human SH-SY5Y cells assessed as cell growth at 20 uM measured after 72 hrs by cellTiter 96 AQueous non-radioactive cell proliferation assay relative to control; assay type: cell-based; details: read-out: Activity
[5] = Toxicity in CD1 mouse assessed as adverse effect at 600 mg/kg measured for 7 days; assay type: organism-based; details: in vivo, 168 h
[6] = Half life in CD1 mouse at 3 mg/kg, iv or 10 mg/kg, po administered via gavage by LC-MS/MS analysis; assay type: ADME, organism-based; details: in vivo
[7] = Apparent permeability across apical to basolateral side in MDCK2-MDR1 cells at 2 uM measured after 150 mins by LC-MS/MS analysis; assay type: ADME, cell-based, Canis lupus familiaris; details: dog, mdck-mdr1, […]
[8] = Inhibition of Toxoplasma gondii full-length C-terminal His-tagged CDPK1 G128M mutant expressed in Escherichia coli BL21(DE3)V2RpAcYc-LIC+LamP using syntide-2 peptide as substrate incubated for 20 to 40 mins by ELISA
[9] = Protein binding in mouse plasma assessed as unbound fraction at 2 uM measured after 4 hrs by LC-MS/MS analysis; assay type: ADME, cell-free
Cytochrome P450 1A2 = molecular target: T1, Cytochrome P450 1A2 (Homo sapiens, UniProt P05177); test: Inhibition of CYP1A2 in human liver microsomes using phenacetin as substrate measured after 10 mins by LC-MS/MS analysis; assay type: ADME
T1 sequence (P05177 whole entry): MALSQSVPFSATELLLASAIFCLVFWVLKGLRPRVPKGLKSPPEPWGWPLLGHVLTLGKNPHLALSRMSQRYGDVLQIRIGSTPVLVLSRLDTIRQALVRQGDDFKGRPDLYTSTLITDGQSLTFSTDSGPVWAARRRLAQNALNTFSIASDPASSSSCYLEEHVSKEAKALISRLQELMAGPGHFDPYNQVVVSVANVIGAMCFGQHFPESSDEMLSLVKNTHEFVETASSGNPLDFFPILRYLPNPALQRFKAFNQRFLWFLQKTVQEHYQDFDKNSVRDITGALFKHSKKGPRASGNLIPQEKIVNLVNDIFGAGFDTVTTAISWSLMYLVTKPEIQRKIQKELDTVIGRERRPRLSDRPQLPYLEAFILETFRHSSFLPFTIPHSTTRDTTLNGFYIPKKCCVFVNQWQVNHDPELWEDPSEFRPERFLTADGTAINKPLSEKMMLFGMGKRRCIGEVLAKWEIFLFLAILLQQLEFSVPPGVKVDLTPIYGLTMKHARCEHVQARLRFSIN

[10] = Cytotoxicity against human HepG2 cells assessed as cell growth at 20 uM measured after 72 hrs by cellTiter 96 AQueous non-radioactive cell proliferation assay relative to control; assay type: cell-based; details: read-out: Activity
[11] = Cytotoxicity against human CMEC/D3 cells assessed as cell growth at 20 uM measured after 72 hrs by cellTiter 96 AQueous non-radioactive cell proliferation assay relative to control; assay type: cell-based, hCMEC/D3; details: read-out: Activity
[12] = molecular target: Voltage-gated inwardly rectifying potassium channel KCNH2 (Homo sapiens, UniProt Q12809); test: Inhibition of human ERG expressed in CHOK1 cells by patch-clamp electrophysiology assay; assay type: cell-based, CHO-K1
[13] = Cmax in CD1 mouse at 3 mg/kg, iv or 10 mg/kg, po administered via gavage by LC-MS/MS analysis; assay type: ADME, organism-based; details: in vivo
[14] = Genotoxicity in Salmonella typhimurium TA100 at 0.004 to 5 mg/ml measured after 90 mins in presence of rat S9 fraction by mini-Ames test; assay type: toxicity, subcellular; details: salmonella enterica subsp. enterica serovar typhimurium
[15] = Cytotoxicity against human Caco2 cells assessed as cell growth at 20 uM measured after 72 hrs by cellTiter 96 AQueous non-radioactive cell proliferation assay relative to control; assay type: cell-based, Caco-2; details: read-out: Activity
Toxoplasma gondii = test: Antiparasitic activity against 2F clone of type 1 Toxoplasma gondii RH tachyzoites expressing beta-galactosidase infected in HFF assessed as reduction in parasite growth measured after 72 hrs by chlorophenol Red-beta-D-galactopyranoside substrate based assay; assay type: functional, organism-based
[16] = Genotoxicity in Salmonella typhimurium TA98 at 0.004 to 5 mg/ml measured after 90 mins in presence of rat S9 fraction by mini-Ames test; assay type: toxicity, subcellular; details: salmonella enterica subsp. enterica serovar typhimurium
[17] = Genotoxicity in Salmonella typhimurium TA100 at 0.004 to 5 mg/ml measured after 90 mins in absence of rat S9 fraction by mini-Ames test; assay type: toxicity; details: salmonella enterica subsp. enterica serovar typhimurium
[18] = Clearance in human hepatocytes assessed per million cells at 1 uM by LC-MS/MS analysis; assay type: ADME, cell-based, Hepatocyte
[19] = Genotoxicity in Salmonella typhimurium TA98 at 0.004 to 5 mg/ml measured after 90 mins in absence of rat S9 fraction by mini-Ames test; assay type: toxicity; details: salmonella enterica subsp. enterica serovar typhimurium
[20] = Intrinsic clearance in human liver microsomes at 10 uM preincubated for 10 mins followed by NADPH addition by LC-MS/MS analysis; assay type: ADME, Microsome; details: read-out: CLH
LCK = LCK (Homo sapiens, UniProt P06239); test: Inhibition of wild-type human partial length LCK (R207 to P509 residues) expressed in bacterial expression system at 10 uM by Kinomescan method relative to control
[21] = Oral bioavailability in CD1 mouse at 10 mg/kg administered via gavage by LC-MS/MS analysis; assay type: ADME, organism-based; details: in vivo

Voltage-gated inwardly rectifying potassium channel KCNH2, sequence (Q12809 whole entry): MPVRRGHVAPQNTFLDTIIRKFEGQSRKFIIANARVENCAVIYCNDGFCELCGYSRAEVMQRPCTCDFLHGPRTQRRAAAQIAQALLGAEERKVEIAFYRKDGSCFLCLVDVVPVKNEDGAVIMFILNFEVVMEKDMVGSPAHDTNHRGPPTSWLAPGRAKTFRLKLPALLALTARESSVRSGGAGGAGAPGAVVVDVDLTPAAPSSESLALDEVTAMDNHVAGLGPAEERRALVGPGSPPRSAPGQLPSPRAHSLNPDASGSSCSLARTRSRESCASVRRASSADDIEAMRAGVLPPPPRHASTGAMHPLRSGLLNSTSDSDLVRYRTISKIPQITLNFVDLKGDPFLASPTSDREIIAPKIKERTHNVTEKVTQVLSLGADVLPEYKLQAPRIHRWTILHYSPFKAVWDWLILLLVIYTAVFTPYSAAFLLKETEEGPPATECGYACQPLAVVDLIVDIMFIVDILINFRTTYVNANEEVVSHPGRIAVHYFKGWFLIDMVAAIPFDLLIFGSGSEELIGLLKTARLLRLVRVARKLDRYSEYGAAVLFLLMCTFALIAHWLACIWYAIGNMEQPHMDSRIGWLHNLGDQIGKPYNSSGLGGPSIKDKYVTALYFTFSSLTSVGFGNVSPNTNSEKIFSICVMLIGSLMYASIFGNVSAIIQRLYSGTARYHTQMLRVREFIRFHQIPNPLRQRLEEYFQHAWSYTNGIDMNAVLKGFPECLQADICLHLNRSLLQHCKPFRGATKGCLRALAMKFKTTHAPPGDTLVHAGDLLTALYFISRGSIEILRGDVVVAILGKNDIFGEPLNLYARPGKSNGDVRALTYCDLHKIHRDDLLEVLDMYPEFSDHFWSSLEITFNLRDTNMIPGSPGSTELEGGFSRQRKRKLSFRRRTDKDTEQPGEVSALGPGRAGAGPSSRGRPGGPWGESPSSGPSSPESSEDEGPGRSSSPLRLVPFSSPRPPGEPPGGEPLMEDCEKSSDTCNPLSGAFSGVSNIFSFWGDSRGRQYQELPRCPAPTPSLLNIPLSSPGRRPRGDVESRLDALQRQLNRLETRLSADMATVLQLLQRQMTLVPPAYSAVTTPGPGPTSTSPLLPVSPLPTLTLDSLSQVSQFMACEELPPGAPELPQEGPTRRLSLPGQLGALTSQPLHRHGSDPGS
Proto-oncogene tyrosine-protein kinase Src, sequence (P12931 2-536 limits assumed): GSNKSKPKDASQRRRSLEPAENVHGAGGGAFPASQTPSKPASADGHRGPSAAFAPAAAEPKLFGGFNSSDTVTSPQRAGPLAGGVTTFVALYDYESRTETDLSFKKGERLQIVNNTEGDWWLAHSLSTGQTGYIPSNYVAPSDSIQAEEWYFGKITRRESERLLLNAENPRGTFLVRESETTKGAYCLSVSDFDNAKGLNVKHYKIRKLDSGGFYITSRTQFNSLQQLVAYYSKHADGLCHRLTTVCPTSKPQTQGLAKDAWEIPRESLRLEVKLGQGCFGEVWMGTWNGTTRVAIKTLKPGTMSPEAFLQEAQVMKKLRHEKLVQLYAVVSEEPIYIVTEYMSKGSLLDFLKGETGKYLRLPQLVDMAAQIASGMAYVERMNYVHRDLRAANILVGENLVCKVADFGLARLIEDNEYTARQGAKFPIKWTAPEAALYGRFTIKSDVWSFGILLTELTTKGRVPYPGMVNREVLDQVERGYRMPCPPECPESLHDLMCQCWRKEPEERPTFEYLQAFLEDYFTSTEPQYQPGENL
LCK, sequence (P06239 whole entry, the tested form may be a part): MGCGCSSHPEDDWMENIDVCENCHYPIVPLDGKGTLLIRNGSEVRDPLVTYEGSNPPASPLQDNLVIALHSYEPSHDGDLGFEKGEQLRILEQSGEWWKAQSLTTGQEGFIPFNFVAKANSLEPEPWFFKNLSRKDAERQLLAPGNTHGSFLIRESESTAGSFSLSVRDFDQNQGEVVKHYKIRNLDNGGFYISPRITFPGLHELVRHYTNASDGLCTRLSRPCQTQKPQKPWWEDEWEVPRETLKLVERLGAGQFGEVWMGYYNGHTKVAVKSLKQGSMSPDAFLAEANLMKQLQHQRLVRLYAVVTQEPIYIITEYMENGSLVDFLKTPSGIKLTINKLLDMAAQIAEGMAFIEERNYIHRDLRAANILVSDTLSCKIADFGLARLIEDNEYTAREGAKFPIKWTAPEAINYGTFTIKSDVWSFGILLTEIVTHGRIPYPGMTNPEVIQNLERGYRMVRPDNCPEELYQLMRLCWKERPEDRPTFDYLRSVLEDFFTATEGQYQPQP

| Structure (SMILES) | Activity (CHO-K1) | half-life at 10 µM [1] | IC50 [2] | IC50 [3] | viability at 72 h, 20 µM [4] | Activity [5] | t1/2 [6] | Papp [7] | IC50 [8] | Fu [9] | EC50 (Cytochrome P450 1A2) | viability at 72 h, 20 µM [10] | viability at 72 h, 20 µM [11] | IC50 [12] | Cmax [13] | Activity [14] | viability at 72 h, 20 µM [15] | EC50 (Toxoplasma gondii) | Activity [16] | Activity [17] | other results |
| --- | --- | --- | --- | --- | --- | --- | --- | --- | --- | --- | --- | --- | --- | --- | --- | --- | --- | --- | --- | --- | --- |
| N#Cc1ccnc(Oc2nn([C@H]3C[C@H](F)C3)c3ncnc(N)c23)c1 | > 100 µM | > 2.42 h | 0.0149 to 0.015 µM | > 20 µM | 103% | Non-Toxic | 1.43 h | 26.87 ×10⁻⁶ cm/s | > 20 µM | 29.3% | 20.8 µM | 101% | 135% | > 30 µM | 1503 ng/mL | Non-Toxic | 95.5% | 0.201 µM | Non-Toxic | Non-Toxic | CLH [18]: 10 µL/min/1e6 cells; Activity [19]: Non-Toxic; CLint scaled at 10 µM [20]: < 8.6 mL/min/kg; inhibition at 10 µM (LCK): 74%; bioavailability [21]: 43.1% |
| Nc1ncnc2c1c(Oc1cc(C(F)(F)F)ccn1)nn2C1CC1 | > 1000 µM | > 2.42 h | 0.016 to 0.0165 µM | > 20 µM | 103% | Non-Toxic | 4.2 h | 33 ×10⁻⁶ cm/s | > 20 µM | 15.6% | 0.46 µM | 104% | 132% | > 30 µM | 2067 ng/mL | Non-Toxic | 93.3% | 0.172 µM | Non-Toxic | Non-Toxic | CLH [18]: < 6.4 µL/min/1e6 cells; Activity [19]: Non-Toxic; CLint scaled at 10 µM [20]: < 8.6 mL/min/kg; inhibition at 10 µM (LCK): 55%; bioavailability [21]: 83% |
